From patent US20150087004A1, “Microfabricated 3D Cell Culture System” (The Trustees of the University of Pennsylvania, priority 2012, published 2015) come the findings set out here.

The test system of this experiment is Human umbilical vein endothelial cells (HUVECs). Briefly: Pro-angiogenic factor screening: directed invasion and sprouting from endothelialized parent vessel in 3D cell culture device. The class given is cell-based. Conditions: for EC invasion into the matrix (single cell or collective cell invasion): factor added individually to source channel, over four days, 75 ng/mL (S1P 500 nM); for mode of cell migration / sprouting response: factor or cocktail in source channel, gradient across collagen matrix. The text has this:
Examination the processes of angiogenic invasion and sprouting from an existing vessel in accordance with the disclosed subject matter will be described, with reference to FIG. 11A-D through FIG. 14A-F, for purpose of illustration and not limitation. Generally, a device in accordance with an embodiment of the disclosed subject matter can be prepared with an endothelium lining a cylindrical channel, surrounded by matrix, and exposed to a gradient of angiogenic factors emanating from a parallel source channel 150a. The device can be assembled by casting Type I collagen into a PDMS mold/gasket with two parallel needles held across the casting chamber. Upon collagen polymerization, the needles can be extracted to create hollow cylindrical channels in the collagen matrix 160. Endothelial cells (ECs) can be injected into one of the channels, allowing them to attach on the interior wall and form a confluent endothelium or “parent vessel” 150a. Flow can be maintained through both channels and media containing angiogenic factors can subsequently be added to the second channel to establish a gradient across the collagen matrix to the endothelium, as illustrated in FIG. 11B.
In a first example, the impact of various pro-angiogenic factors on directed invasion and sprouting from the parent vessel is examined. Six common factors associated with angiogenesis in the literature were selected: basic fibroblast growth factor (bFGF), hepatocyte growth factor (HGF), vascular endothelial growth factor (VEGF), monocyte chemotactic protein-1 (MCP-1), sphingosine-1-phosphate (S1P), and phorbol 12-myristate 13-acetate (PMA). After these factors were added individually to the non-endothelialized source channel, phase-contrast and confocal microscopy were used to assess the organization and development of EC invasion over four days.
In connection with the examples described herein, an exemplary device in accordance with the disclosed subject matter was fabricated from two patterned layers of poly(dimethylsiloxane) (PDMS; Sylgard 184; Dow-Corning) bonded to each other and sealed against a glass substrate (e.g., as depicted in FIG. 11A). The two PDMS layers were cast or double-cast from templates originally generated using standard photolithography of SU-8 on silicon wafers. To assemble the device, the bottom layer was first sealed to a glass coverslip. The top and bottom layers were then treated with oxygen plasma, bonded together, and cured at 110° C. overnight. Assembled devices then were treated with oxygen plasma, immersed in 0.1 mg/ml poly-L-lysine (Sigma) for 1 hr, 1% glutaraldehyde (Sigma) for 1.5 hr, washed several times with ddH2O, sterilized with UV light for 15 min, and soaked in 70% ethanol for 1 hr. To mold cylindrical channels, two 400 μm diameter acupuncture needles (Hwato) were inserted into parallel grooves at the top of the bottom layer and through the middle rectangular chamber approximately 200 μm above the glass coverslip surface. Rat tail collagen type I (2.5 mg/ml; BD Biosciences) was pipetted into the middle chamber and allowed to polymerize at 37° C. for 30 min. Excess collagen was subsequently aspirated from the fluid reservoirs feeding from the middle chamber. Devices were then covered with EGM-2 (Lonza) before the needles were extracted as described herein.
Cells were cultured and seeded in accordance with the disclosed subject matter into the device described in connection with the first example. Human umbilical vein endothelial cells (HUVECs) (Lonza) and human microvascular endothelial cells (HMVECs) (Lonza) were cultured in EGM-2 and EGM-2MV, respectively.

With `CCCCCCCCCCCCCC(=O)O[C@@H]1[C@@H](C)[C@@]2(O)[C@@H](C=C(CO)C[C@]3(O)C(=O)C(C)=C[C@@H]23)[C@@H]2C(C)(C)[C@]12OC(C)=O` [PMA, phorbol 12-myristate 13-acetate], the “EC invasion into the matrix (single cell or collective cell invasion)” value (“EC invasion into the matrix” for short) is listed as “substantial directed invasion” and the “mode of cell migration / sprouting response” value is recorded as “collective cell migration that manifested itself in the form of sparse, long, multi-cellular sprouts”.
With `CCCCCCCCCCCCC/C=C/[C@@H](O)[C@@H](N)COP(=O)(O)O` [S1P, sphingosine-1-phosphate], the “EC invasion into the matrix” value is given as “substantial directed invasion” and the “mode of cell migration / sprouting response” value is “chemotactic migration primarily of single cells”.
Turning to basic fibroblast growth factor [bFGF], the “EC invasion into the matrix” value is “did not induce significant invasion”.
As for hepatocyte growth factor [HGF], the “EC invasion into the matrix” value is recorded as “did not induce significant invasion”.
Still for that read-out and setting: the result for monocyte chemotactic protein-1 [MCP-1] reads “did not induce significant invasion”; that for “vascular endothelial growth factor [VEGF]”, “did not induce significant invasion”.
